Earlier results in patent publication US9215889B2, “Steviol glycoside” (MORITA KAGAKU KOGYO CO., LTD., priority 2008, dated 2015).

Details: for taste quality (in words): background comparison of ST and RA

C=C1C[C@@]23CC[C@H]4[C@@](C)(CCC[C@@]4(C)C(=O)O[C@@H]4O[C@H](CO)[C@@H](O)[C@H](O)[C@H]4O)[C@@H]2CC[C@]1(O[C@@H]1O[C@H](CO)[C@@H](O)[C@H](O[C@@H]2O[C@H](CO)[C@@H](O)[C@H](O)[C@H]2O)[C@H]1O[C@@H]1O[C@H](CO)[C@@H](O)[C@H](O)[C@H]1O)C3 [RA, Rebaudioside A]
taste quality (in words): good quality of sweetness

C=C1C[C@@]23CC[C@H]4[C@@](C)(CCC[C@@]4(C)C(=O)O[C@@H]4O[C@H](CO)[C@@H](O)[C@H](O)[C@H]4O)[C@@H]2CC[C@]1(O[C@@H]1O[C@H](CO)[C@@H](O)[C@H](O)[C@H]1O[C@@H]1O[C@H](CO)[C@@H](O)[C@H](O)[C@H]1O)C3 [ST, Stevioside]
taste quality (in words): an unpleasant taste of bitterness remains in the mouth
degree of sweetness (relative to sucrose): 300 times that of sucrose
